1 substance from patent publication US20240083944A1 (priority 2021, published 2024) can be followed below.

Starred links: 1 amine or outer side, 2 acyl side, 3 side chain; linkers in the order of their positions; H or OH if unused. Positions of bridges follow the written chain, without caps; N, C: chain ends. Non-standard residues stand in square brackets, D forms with d. Chains are numbered I, II in the order given. X2 = O=C(CCOCCN(CCOCCC(=O)NCCOCCOCCOCCOCCOCCOCCOCCOCCOCCOCCn1cc(CCC(=O)[*:2])nn1)CCOCCC(=O)NCCOCCOCCOCCOCCOCCOCCOCCOCCOCCOCCn1cc(CCC(=O)[*:3])nn1)NCCOCCOCCOCCOCCOCCOCCOCCOCCOCCOCCn1cc(CCC(=O)[*:1])nn1; X1 = C(c1nc(C[*:2])nc(C[*:3])n1)[*:1]; tBuAla = CC(C)(C)C[C@H](N)C(=O)O; Agb = N=C(N)NCC[C@H](N)C(=O)O

This assay relates to SARS-CoV-2 pseudotyped HIV-1 virions, D614G.

A word on the IC50: it is the point on the concentration scale where inhibition reaches its midpoint. A low value points to greater potency. On to “I: Ac-CPYVAG[Agb][dA]TCL[tBuAla]CK-NH2 / II: Ac-CPYVAG[Agb][dA]TCL[tBuAla]CK-NH2 / III: Ac-CPYVAG[Agb][dA]TCL[tBuAla]CK-NH2 (linker I:1-I:10-I:13, II:1-II:10-II:13, III:1-III:10-III:13 via X1; linker I:14-II:14-III:14 via X2) [BCY17021]”, for which the IC50 came out at 500 pM.
